The values below come from patent US5686486A, “4-hydroxy-benzopyran-2-ones and 4-hydroxy-cycloalkyl[b]pyran-2-ones useful to treat retroviral infections” (priority 1995, dated 1997).

The structures appear in SMILES notation. Values joined by “and” are separate entries in the source; they are usually repeats but may differ in a detail not shown here. Equal values may be shown once.

The target in assay [1] is T1, HIV-1 protease (Human immunodeficiency virus type 1 group M subtype B, UniProt P04585). Kind of assay: biochemical. Conditions: read-out: HIV-1 FITC KI. Summed up:
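Enzyme (40 nM stock) and substrate (200 μM stock) incubated with inhibitor, 24–48 two-fold serial concentrations, for 90 min at room temperature, then quenched with avidin beads. Nonlinear least-squares analysis gives Ki; a known-Ki inhibitor validates each run.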

Assay [2] deals with T1, HIV-1 protease. Kind of assay: biochemical. The settings on record: for inhibition at 0.123 µM: read-out: HIV-1 Protease % Inhib, dose 0.123 uM; for inhibition at 0.37 µM: read-out: HIV-1 Protease % Inhib, dose 0.370 uM; for inhibition at 1.1 µM: read-out: HIV-1 Protease % Inhib, dose 1.100 uM; for inhibition at 3.3 µM: read-out: HIV-1 Protease % Inhib, dose 3.300 uM; for inhibition at 10 µM: read-out: HIV-1 Protease % Inhib, dose 10.000 uM; for inhibition at 30 µM: read-out: HIV-1 Protease % Inhib, dose 30.000 uM. The essentials: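 Percent inhibition derived from fluorescent cleavage product separated by filtration after streptavidin-bead capture of intact biotin/FITC substrate. Reaction: enzyme (10 μl, 0.1 μM stock) with substrate (20 μl, 0.2 μM stock) and compound, 1 h at room temperature in dark, pH 5.5 acetate buffer with 1.0 M NaCl and 0.05% NP-40.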

One may read the Ki as the equilibrium dissociation constant of an inhibitor or competing ligand from its target. Regarding `O=c1oc2c(c(O)c1C(c1cccc(NS(=O)(=O)c3cccc(C(F)(F)F)c3)c1)C1CC1)CCCCCC2` (stereo not drawn) [Example 280, N-[3-[Cyclopropyl(5,6,7,8,9,10-hexahydro-4-hydroxy-2-oxo-2H-cycloocta[b]pyran-3-yl)methyl]phenyl]-3-(trifluoromethyl)-benzenesulfonamide], at HIV-1 protease [1], the Ki is 0.003 µM. Besides, on HIV-1 protease [2], the inhibition at 0.123 µM was 69.8%, the inhibition at 0.37 µM came out at 95.1%, the inhibition at 1.1 µM was 101% and the inhibition at 3.3 µM was 110%. On HIV-1 protease [2], the inhibition at 10 µM is 110% and the inhibition at 30 µM was determined as 114%.
As to `Nc1cccc(C(c2c(O)c3c(oc2=O)CCCCCC3)C2CC2)c1` (stereo not drawn) [Example 164, 3-[(3-Aminophenyl)cyclopropylmethyl]-5,6,7,8,9,10-hexahydro-4-hydroxy-2H-cycloocta[b]pyran-2-one], the Ki on HIV-1 protease [1] came out at 0.078 µM. At HIV-1 protease [2], the inhibition at 0.37 µM is 14.6%, the inhibition at 1.1 µM amounted to 46.2%, the inhibition at 3.3 µM was found to be 87.3% and the inhibition at 10 µM was determined as 99.7%. The inhibition at 30 µM at HIV-1 protease [2] is 102%.
As to `CCC1CCCCCc2c1oc(=O)c(C(c1ccccc1)C1CC1)c2O` (stereo not drawn) [Example 127, 3-(Cyclopropyl-phenyl-methyl)-10-ethyl-4-hydroxy-5,6,7,8,9,10-hexahydro-cycloocta[b]pyran-2-one], on HIV-1 protease [1], the Ki was found to be 0.033 µM. For the same molecule, on HIV-1 protease [2], the inhibition at 0.123 µM is 52.3%, the inhibition at 0.37 µM turned out to be 92.5%, the inhibition at 1.1 µM is 112% and the inhibition at 3.3 µM is 115%. Also, at HIV-1 protease [2], the inhibition at 10 µM is 117% and the inhibition at 30 µM stood at 111%.
Regarding `CC(CO)C1CCCCCc2c1oc(=O)c(C(c1ccccc1)C1CC1)c2O` (stereo not drawn) [Example 161, 3-(Cyclopropylphenylmethyl)-5,6,7,8,9,10-hexahydro-4-hydroxy-10-(2-hydroxy-1-methylethyl)-2H-cyclooct[b]pyran-2-one], the Ki at HIV-1 protease [1] stood at 0.032 µM. Further, on HIV-1 protease [2], the inhibition at 0.123 µM was 20%, the inhibition at 0.37 µM is 67.3%, the inhibition at 1.1 µM turned out to be 98.7% and the inhibition at 3.3 µM came to 104%. Besides, on HIV-1 protease [2], the inhibition at 10 µM came out at 106% and the inhibition at 30 µM was 111%.
For `CCCCC1CCCCCc2c1oc(=O)c(C(c1ccccc1)C1CC1)c2O` (stereo not drawn) [Example 129, 10-Butyl-3-(cyclopropyl-phenyl-methyl)4-hydroxy-5,6,7,8,9,10-hexahydro-cycloocta[b]pyran-2-one], the Ki at HIV-1 protease [1] amounted to 0.031 µM. On HIV-1 protease [2], the inhibition at 0.123 µM turned out to be 23.2%, the inhibition at 0.37 µM was determined as 67.8%, the inhibition at 1.1 µM amounted to 96.5% and the inhibition at 3.3 µM stood at 106%. On HIV-1 protease [2], the inhibition at 10 µM was determined as 117% and the inhibition at 30 µM stood at 120%.
Turning to `CC(C)CC1CCCCCc2c1oc(=O)c(C(c1ccccc1)C1CC1)c2O` (stereo not drawn) [Example 131, 3-(Cyclopropyl-phenyl-methyl)-4-hydroxy-10-isobutyl-5,6,7,8,9,10-hexahydro-cycloocta[b]pyran-2-one], the Ki on HIV-1 protease [1] was 0.03 µM. At HIV-1 protease [2], the inhibition at 0.123 µM turned out to be 30.7%, the inhibition at 0.37 µM was found to be 74.2%, the inhibition at 1.1 µM stood at 98.7% and the inhibition at 3.3 µM came to 112%. In addition, at HIV-1 protease [2], the inhibition at 10 µM was 116% and the inhibition at 30 µM turned out to be 106%.
`CCC(c1ccc(C)s1)c1c(O)c2c(oc1=O)CCCCCC2` (stereo not drawn) [Example 381]: at HIV-1 protease [1], the Ki was 0.0391 µM. On HIV-1 protease [2], the inhibition at 0.37 µM was 24.1%, the inhibition at 1.1 µM turned out to be 62.3%, the inhibition at 3.3 µM worked out at 80.4% and the inhibition at 10 µM was determined as 99.8%. Further, the inhibition at 30 µM at HIV-1 protease [2] was determined as 96.7%.
`O=c1oc2c(c(O)c1C(c1ccccc1)C1CC1)CCCCCC2` (stereo not drawn) [Example 107, 3-(Cyclopropylphenylmethyl)-5,6,7,8,9,10-hexahydro-4-hydroxy-2h-cycloocta[b]pyran-2-one]: the Ki on HIV-1 protease [1] is 0.02 µM and 0.012 µM and 0.007 µM. Besides, the inhibition at 1 µM on HIV-1 protease [2] (read-out: HIV-1 Protease % Inhib, dose 1.000 uM) was 90.7%. In addition, at HIV-1 protease [2], the inhibition at 10 µM was determined as 101%. In addition, at HIV-1 protease [2] (read-out: HIV-1 Protease % Inhib, dose 100.000 uM), the inhibition at 100 µM came to 101%.
For the molecule `CCS(=O)(=O)Nc1cccc(C(c2c(O)c3c(oc2=O)CCCCCC3)C2CC2)c1` (stereo not drawn) [Example 318, N-[3-[Cyclopropyl(5,6,7,8,9,10-hexahydro-4-hydroxy-2-oxo-2H-cycloocta[b]pyran-3-yl)methyl]phenyl]-ethanesulfonamide], the inhibitory constant (Ki) on HIV-1 protease [1] worked out at 0.0099 µM. Further, on HIV-1 protease [2], the inhibition at 0.123 µM was determined as 28.3%, the inhibition at 0.37 µM came to 45.1%, the inhibition at 1.1 µM is 84.2% and the inhibition at 3.3 µM worked out at 99.7%. At HIV-1 protease [2], the inhibition at 10 µM came to 97.5% and the inhibition at 30 µM is 106%.
Turning to `Cc1noc(C)c1S(=O)(=O)Nc1cccc(C(c2c(O)c3c(oc2=O)CCCCCC3)C2CC2)c1` (stereo not drawn) [Example 338, N-[3-[Cyclopropyl(5,6,7,8,9,10-hexahydro-4-hydroxy-2-oxo-2H-cycloocta[b]pyran-3-yl)methyl]phenyl]-3,5-dimethyl-4-isoxazolesulfonamide], on HIV-1 protease [1], the Ki was determined as 0.0098 µM. On HIV-1 protease [2], the inhibition at 0.123 µM amounted to 39.1%, the inhibition at 0.37 µM stood at 80.1%, the inhibition at 1.1 µM is 86.3% and the inhibition at 3.3 µM is 96.8%. Moreover, on HIV-1 protease [2], the inhibition at 10 µM is 102% and the inhibition at 30 µM is 100%.
For the molecule `O=c1oc2c(c(O)c1C(c1cccc(NS(=O)(=O)Cc3ccccc3)c1)C1CC1)CCCCCC2` (stereo not drawn) [Example 321, N-[3-[Cyclopropyl(5,6,7,8,9,10-hexahydro-4-hydroxy-2-oxo-2H-cycloocta[b]pyran-3-yl)methyl]phenyl]-benzenemethanesulfonamide], at HIV-1 protease [1], the Ki is 0.0132 µM. Moreover, on HIV-1 protease [2], the inhibition at 0.123 µM was found to be 22.2%, the inhibition at 0.37 µM amounted to 62.1%, the inhibition at 1.1 µM is 100% and the inhibition at 3.3 µM was found to be 113%. For the same molecule, on HIV-1 protease [2], the inhibition at 10 µM amounted to 119% and the inhibition at 30 µM was found to be 118%.
For `Nc1cccc(S(=O)(=O)Nc2cccc(C(c3c(O)c4c(oc3=O)CCCCCC4)C3CC3)c2)c1` (stereo not drawn) [Example 353 (First Title Compound), 3-Amino-N-[3-[cyclopropyl(5,6,7,8,9,10-hexahydro-4-hydroxy-2-oxo-2H-cycloocta[b]pyran-3-yl)methyl]phenyl]-benzenesulfonamide], the inhibition constant Ki at HIV-1 protease [1] came to 0.00225 µM. Besides, on HIV-1 protease [2], the inhibition at 0.123 µM turned out to be 48.6%, the inhibition at 0.37 µM was 83.1%, the inhibition at 1.1 µM stood at 92.7% and the inhibition at 3.3 µM is 97.3%. At HIV-1 protease [2], the inhibition at 10 µM was 103% and the inhibition at 30 µM came out at 92.9%.
As for `O=c1oc2c(c(O)c1C(c1ccccc1)C1CC1)CCCCCC2CC1CCCO1` (single isomer, unassigned) [Example 171, 3-(Cyclopropylphenylmethyl)-5,6,7,8,9,10-hexahydro-4-hydroxy-10-[(tetrahydro-2-furanyl)methyl]-2H-cycloocta[b]pyran-2-one], the Ki at HIV-1 protease [1] is 0.023 µM. In addition, the “HIV-1 Protease % Inhib” value is recorded as 33.13% at HIV-1 protease [2] (dose 0.123 uM); 73.44% at HIV-1 protease [2] (dose 0.370 uM); 96.52% at HIV-1 protease [2] (dose 1.100 uM); 103.16% on HIV-1 protease [2] (dose 3.300 uM); 109.98% on HIV-1 protease [2] (dose 10.000 uM); 108.64% at HIV-1 protease [2] (dose 30.000 uM).
With `O=c1oc2c(c(O)c1C(c1cccc(NS(=O)(=O)c3ccccc3C(F)(F)F)c1)C1CC1)CCCCCC2` (stereo not drawn) [Example 286, N-[3-[Cyclopropyl(5,6,7,8,9,10-hexahydro4-hydroxy-2-oxo-2H-cycloocta[b]pyran-3-yl)methyl]phenyl]-2-(trifluoromethyl)-benzenesulfonamide], the inhibitory constant (Ki) at HIV-1 protease [1] is 0.0214 µM. Further, on HIV-1 protease [2], the inhibition at 0.123 µM is 30%, the inhibition at 0.37 µM was found to be 62.4%, the inhibition at 1.1 µM amounted to 83.3% and the inhibition at 3.3 µM worked out at 92.3%. On HIV-1 protease [2], the inhibition at 10 µM is 97.4% and the inhibition at 30 µM was 93.7%.
For the molecule `CC(O)CC1CCCCCc2c1oc(=O)c(C(c1ccccc1)C1CC1)c2O` (stereo not drawn) [Example 162, 3-(Cyclopropylphenylmethyl)-5,6,7,8,9,10-hexahydro-4-hydroxy-10-(2-hydroxypropyl)-2H-cycloocta[b]pyran-2-one], the Ki on HIV-1 protease [1] is 0.04 µM. Besides, on HIV-1 protease [2], the inhibition at 0.123 µM worked out at 14.8%, the inhibition at 0.37 µM stood at 56%, the inhibition at 1.1 µM was found to be 92.2% and the inhibition at 3.3 µM turned out to be 99.3%. For the same molecule, at HIV-1 protease [2], the inhibition at 10 µM was determined as 102% and the inhibition at 30 µM turned out to be 109%.
With `O=c1oc2c(c(O)c1C(c1ccc(CO)s1)C1CC1)CCCCCC2` (stereo not drawn) [Example 384], the Ki at HIV-1 protease [1] worked out at 0.0241 µM. At HIV-1 protease [2], the inhibition at 0.123 µM came out at 12.2%, the inhibition at 0.37 µM turned out to be 47.4%, the inhibition at 1.1 µM came to 79.2% and the inhibition at 3.3 µM amounted to 92.9%. Besides, at HIV-1 protease [2], the inhibition at 10 µM was determined as 103% and the inhibition at 30 µM is 102%.
With `CCCC1CCCCc2c1oc(=O)c(C(c1ccccc1)C1CC1)c2O` (stereo not drawn) [Example 188, 3-(Cyclopropylphenylmethyl)-6,7,8,9-tetrahydro-4-hydroxy-9-propyl-cyclohepta[b]pyran-2(5H)-one], the Ki at HIV-1 protease [1] was found to be 0.026 µM. For the same molecule, on HIV-1 protease [2], the inhibition at 0.123 µM turned out to be 27.3%, the inhibition at 0.37 µM is 57%, the inhibition at 1.1 µM worked out at 82.2% and the inhibition at 3.3 µM was determined as 88.4%. On HIV-1 protease [2], the inhibition at 10 µM stood at 88.3% and the inhibition at 30 µM is 84.5%.
